What was measured:
CKL2 (AT1G72710) = molecular target: T1, CKL2 (AT1G72710) (Arabidopsis thaliana, UniProt Q9CAI5); experiment: AMI‐329 bead binding with AMI‐331 competitor, CKL2
T1 construct: from tissue; host or cells: Arabidopsis seedlings, two weeks old
Description: Screening for proteins bound to AMI‐329 beads was done by a method similar to what has previously been described (Uehara et al., 2019). Briefly, two‐week‐old seedlings grown under LD conditions were harvested at time points ZT2, ZT6, ZT9, and ZT17, and stored at −80°C. Proteins from the frozen plant samples were incubated with 0, 5, or 50 µM of AMI‐331 at 4°C for 30 min with rotary mixing. Two technical replicates were used for each experiment. PBS‐washed AMI‐329 beads were added to the protein samples and gently rotated at 4°C for 1 hr. AMI‐329 bead resins were washed with bead buffer (Uehara et al., 2019) six times. The washed resins were suspended in SDS sample buffer and boiled for 8 min. Protein samples were in‐gel‐digested as previously described (Uehara et al., 2019). Peptides were analyzed with a Q Exactive hybrid quadrupole‐orbitrap mass spectrometer (Thermo Fisher Scientific), as described previously (Uehara et al., 2019). […]
However, another possible mechanism for the strong AMI‐331 biological activity in vivo is that it targets proteins other than the CK1 family for period lengthening. […] It is noteworthy that kinase AT4G08800 is very similar to the CKL family, but the ATP‐binding pocket of mammalian CK1 as determined by its crystal structure (Shinohara et al., 2017) was absent from AT4G08800, as shown in an Araport 11 model (https://www.araport.org). […]

PRR7 = experiment: RT-qPCR of the CK1 downstream gene PRR7; assay type: in vivo, Arabidopsis; details: 6 hr
Description: Arabidopsis Col‐0 seedlings that had been grown under constant light conditions for […] were immersed in 10 or 50 µM of the GSK‐3, SHAGGY‐related, and BIN2 kinase inhibitor Bikinin (SML0094, Sigma) (De Rybel et al., 2009), […], or DMSO as control for 6 hr. Three biological replicates were used for each assay. Harvested seedlings were frozen in liquid nitrogen and crushed with zirconia beads in a Tissue Lyser II, and RNA was isolated with Illustra RNAspin (25‐0500‐72, GE Healthcare). RT‐qPCR was performed as described previously (Nakamichi et al., 2010) using an Eco Real‐Time PCR System (Illumina). Gene expression was normalized against IPP2, and maximal values were set to 1. Primers for detecting IPP2, PRR7, GR60ox2, and CPD were described previously (De Rybel et al., 2009; Kamioka et al., 2016).
Because the ATSK family was identified by the molecular probe assay as potential targets of AMI‐331, even though the affinities between AMI‐331 and ATSKs were not as high as between AMI‐331 and CK1, we used the ATSK inhibitor Bikinin to determine if AMI‐331 treatment affects the expression of genes downstream of ATSKs (De Rybel et al., 2009). Four‐day‐old Arabidopsis seedlings grown under constant light conditions were treated with Bikinin or AMI‐331 for 6 hr, and mRNA extracted from seedlings samples was analyzed by RT‐qPCR.

CCA1:LUC seedlings = experiment: Bioluminescence-based circadian period lengthening in CCA1:LUC seedlings; assay type: in vivo, Arabidopsis thaliana
Description: Bioluminescence‐based circadian rhythms of CCA1:LUC plants treated with small molecules were analyzed by auto‐luminescence detection (Churitsu CL96) as described previously (Uehara et al., 2019). Period length was automatically calculated as previously described (Kamioka et al., 2016).
To estimate CK1 inhibitor activity in vivo, we choose to measure circadian period‐lengthening activity in Arabidopsis seedlings. The assay was made more efficient by monitoring the circadian period using a clock reporter plant line (CCA1:LUC) and an automated luminometer. These tools can be used to measure the circadian period with high confidence, and estimates of in vivo CK1 inhibitor activity are quantitative (Uehara et al., 2019). Four‐day‐old CCA1:LUC seedlings grown under 12‐hr light/12‐hr dark conditions were treated with IC261, PF‐670462, and PHA767491 at different concentrations, and seedling luminescence was monitored under constant light conditions. Dimethyl sulfoxide (DMSO), the solvent used for all of the CK1 inhibitors, was used as a control. IC261 lengthened the circadian period of CCA1:LUC seedlings in a dose‐dependent manner (Figure 1d), with a 2‐hr period lengthening at 500 µM. PF‐670462 and PHA767491 treatment concentrations also correlated with period lengthening (Figure 1e and f). The concentrations required for 2‐hr lengthening effects were 90 µM for PF‐670472 and 47 µM for PHA767491, which was consistent with previous work (Uehara et al., 2019). Thus, PHA767491 was the strongest in vivo CK1 inhibitor among the three inhibitors tested.

[1] = CCA1:LUC seedlings, constant light

T1 sequence (Q9CAI5 whole entry): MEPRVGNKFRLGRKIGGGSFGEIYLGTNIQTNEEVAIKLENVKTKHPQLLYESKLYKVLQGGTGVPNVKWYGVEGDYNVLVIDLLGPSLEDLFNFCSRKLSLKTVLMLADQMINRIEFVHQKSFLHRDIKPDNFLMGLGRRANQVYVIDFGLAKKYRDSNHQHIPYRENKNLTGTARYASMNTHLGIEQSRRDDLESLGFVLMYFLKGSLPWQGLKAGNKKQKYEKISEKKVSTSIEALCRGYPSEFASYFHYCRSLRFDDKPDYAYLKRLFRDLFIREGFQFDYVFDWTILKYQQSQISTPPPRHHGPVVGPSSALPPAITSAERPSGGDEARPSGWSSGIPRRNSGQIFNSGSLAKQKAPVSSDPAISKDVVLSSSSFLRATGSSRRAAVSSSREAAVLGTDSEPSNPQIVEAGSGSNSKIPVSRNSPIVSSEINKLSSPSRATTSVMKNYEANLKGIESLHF

Structure (SMILES): C#CCn1c2c(c(Br)c1-c1ccncc1)C(=O)NCC2.Cl [AMI‐331]
- Spectra (PSMs) AMI‐329 beads bound (CKL2 (AT1G72710); competitor AMI‐331 5 µM): 1 PSMs
- Spectra (PSMs) AMI‐329 beads bound (CKL2 (AT1G72710); competitor AMI‐331 50 µM): 0 PSMs
- PRR7 transcript abundance (PRR7; 1 µM): significantly decreased
- PRR7 transcript abundance (PRR7; 5 and 25 µM): decreased
- Concentration required for 2‐hr period lengthening (2hLC) (CCA1:LUC seedlings; [1]): 0.4 µM
- Concentration required for 5‐hr period lengthening (5hLC) (CCA1:LUC seedlings; [1]): 1.4 µM
- Concentration that significantly lengthens the circadian clock period (CCA1:LUC seedlings; in vivo): below 1 µM

Source: paper PMC6747015, “Structure–function study of a novel inhibitor of the casein kinase 1 family in Arabidopsis thaliana” (Plant Direct, 2019)
